The values below come from patent US20250353891A1 (MEDIMMUNE LIMITED, priority 2022, published 2025).

Starred links: 1 amine or outer side, 2 acyl side, 3 side chain; linkers in the order of their positions; H or OH if unused. Non-standard residues stand in square brackets, D forms with d. Residues, ends and D or L forms follow the SMILES beside them. Groups on a side chain read outwards from the residue. *: point of attachment. C20 diacid = O=C(O)CCCCCCCCCCCCCCCCCCC(=O)*; C18 diacid = O=C(O)CCCCCCCCCCCCCCCCC(=O)*; γGlu = O=C(O)[C@H](CCC(=O)[*:2])N[*:1]; αMeF = C[C@](N)(Cc1ccccc1)C(=O)O; AEEA = NCCOCCOCC(=O)O; Aib = CC(C)(N)C(=O)O

In assay [1] the target is human glucagon receptor (hGCGR) (Homo sapiens, UniProt P47871). In words: cAMP production (HTRF) in CHO cells expressing hGCGR. The class given is cell-based. Also noted: expressed in transfected cells. The conditions noted are these: Table 6, peptides modified at position 17; cAMP in CHO hGCGR cells; geometric mean; read-out: hGluc-R EC50. In a few lines:
(§1)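 Read-out: HTRF cAMP (anti-cAMP cryptate donor, cAMP-d2 acceptor in conjugate/lysis buffer), converted to % Delta F and fitted by 4-parameter logistic for EC50. Cell densities were 1×10^5 cells/mL (hGLP-1R) or 2×10^5 cells/mL (hGCGR). Stimulation lasted 30 min at room temperature.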

The target of assay [2] is human GLP-1 receptor (hGLP-1R) (Homo sapiens, UniProt P43220). In words: cAMP production (HTRF) in CHO cells expressing hGLP-1R. In kind it is cell-based. Also noted: expressed in transfected cells. The conditions noted are these: for EC50: Table 6, peptides modified at position 17, cAMP in CHO hGLP-1R cells, geometric mean, read-out: hGLP-1R EC50; for % Relative Potency Ratio: Table 6, % GLP-1R activity relative to GLP-1 / % GlucR activity relative to glucagon. In a few lines:
as §1

human glucagon receptor (hGCGR), sequence (P47871 26-477): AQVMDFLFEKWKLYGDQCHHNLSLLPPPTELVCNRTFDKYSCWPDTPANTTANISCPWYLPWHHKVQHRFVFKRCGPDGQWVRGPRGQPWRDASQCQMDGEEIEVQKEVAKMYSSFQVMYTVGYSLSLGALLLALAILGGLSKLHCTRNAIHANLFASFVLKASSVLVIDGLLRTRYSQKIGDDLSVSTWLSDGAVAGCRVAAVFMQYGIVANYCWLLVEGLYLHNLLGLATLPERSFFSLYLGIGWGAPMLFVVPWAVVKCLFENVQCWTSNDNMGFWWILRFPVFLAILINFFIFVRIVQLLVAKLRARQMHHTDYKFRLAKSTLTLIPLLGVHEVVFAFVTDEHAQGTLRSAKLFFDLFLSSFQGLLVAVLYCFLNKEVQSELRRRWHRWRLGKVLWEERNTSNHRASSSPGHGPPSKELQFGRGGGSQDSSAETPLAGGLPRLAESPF
human GLP-1 receptor (hGLP-1R), sequence (P43220 24-463): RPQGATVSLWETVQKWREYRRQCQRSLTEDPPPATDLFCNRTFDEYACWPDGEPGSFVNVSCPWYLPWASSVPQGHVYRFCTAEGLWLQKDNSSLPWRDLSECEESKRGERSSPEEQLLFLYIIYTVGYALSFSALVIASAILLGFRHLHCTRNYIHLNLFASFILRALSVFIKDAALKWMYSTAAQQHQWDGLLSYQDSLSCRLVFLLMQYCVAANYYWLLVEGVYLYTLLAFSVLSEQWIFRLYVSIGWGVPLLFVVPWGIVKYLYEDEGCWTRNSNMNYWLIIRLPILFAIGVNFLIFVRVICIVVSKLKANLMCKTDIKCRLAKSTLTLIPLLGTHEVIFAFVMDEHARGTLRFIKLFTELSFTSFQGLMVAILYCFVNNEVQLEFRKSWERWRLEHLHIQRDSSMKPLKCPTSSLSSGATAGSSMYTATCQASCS

In the case of `CC(C)C[C@H](NC(=O)[C@H](Cc1c[nH]c2ccccc12)NC(=O)[C@H](CCCNC(=N)N)NC(=O)[C@@H](NC(=O)[C@H](Cc1ccccc1)NC(=O)[C@H](CC(=O)O)NC(=O)[C@H](CCC(N)=O)NC(=O)[C@H](C)NC(=O)[C@H](CCCNC(=N)N)NC(=O)[C@H](CCCCNC(=O)COCCOCCNC(=O)COCCOCCNC(=O)CC[C@H](NC(=O)CCCCCCCCCCCCCCCCC(=O)O)C(=O)O)NC(=O)[C@H](CO)NC(=O)[C@H](CC(=O)O)NC(=O)[C@H](CC(C)C)NC(=O)[C@](C)(Cc1ccccc1)NC(=O)[C@H](CCCCN)NC(=O)[C@H](CO)NC(=O)[C@@H](NC(=O)[C@H](CC(=O)O)NC(=O)[C@H](CO)NC(=O)[C@@H](NC(=O)[C@H](Cc1ccccc1)NC(=O)[C@@H](NC(=O)CNC(=O)[C@H](CCC(N)=O)NC(=O)C(C)(C)NC(=O)[C@@H](N)Cc1c[nH]cn1)[C@@H](C)O)[C@@H](C)O)C(C)C)C(C)C)C(=O)N[C@@H](CCC(=O)O)C(=O)N[C@@H](C)C(=O)NC(C)(C)C(=O)NCC(=O)O` [Peptide 147] (H-H[Aib]QGTFTSDVSK[αMeF]LDSK([AEEA-AEEA-γGlu-C18 diacid])RAQDFVRWLEA[Aib]G-OH; N-terminus assumed), the half-maximal effective concentration (EC50) in assay [1] turned out to be 0.0435 nM. Also, in assay [2], the concentration for a half-maximal effect (EC50) was found to be 0.0153 nM and the “% Relative Potency Ratio” value came out at 5.6.
For `CC[C@H](C)[C@H](NC(=O)[C@H](Cc1c[nH]c2ccccc12)NC(=O)[C@H](CCCNC(=N)N)NC(=O)[C@@H](NC(=O)[C@H](Cc1ccccc1)NC(=O)[C@H](CC(=O)O)NC(=O)[C@H](CCC(N)=O)NC(=O)[C@H](C)NC(=O)[C@H](CCCNC(=N)N)NC(=O)[C@H](CCCCNC(=O)COCCOCCNC(=O)COCCOCCNC(=O)CC[C@H](NC(=O)CCCCCCCCCCCCCCCCC(=O)O)C(=O)O)NC(=O)[C@H](CO)NC(=O)[C@H](CC(=O)O)NC(=O)[C@H](CC(C)C)NC(=O)[C@](C)(Cc1ccccc1)NC(=O)[C@H](CCCCN)NC(=O)[C@H](CO)NC(=O)[C@@H](NC(=O)[C@H](CC(=O)O)NC(=O)[C@H](CO)NC(=O)[C@@H](NC(=O)[C@H](Cc1ccccc1)NC(=O)[C@@H](NC(=O)CNC(=O)[C@H](CCC(N)=O)NC(=O)C(C)(C)NC(=O)[C@@H](N)Cc1c[nH]cn1)[C@@H](C)O)[C@@H](C)O)C(C)C)C(C)C)C(=O)N[C@@H](C)C(=O)N[C@@H](CCC(=O)O)C(=O)NC(C)(C)C(=O)NCC(=O)O` [Peptide 148] (H-H[Aib]QGTFTSDVSK[αMeF]LDSK([AEEA-AEEA-γGlu-C18 diacid])RAQDFVRWIAE[Aib]G-OH; N-terminus assumed), in that order: 0.568 nM, 0.0402 nM and 27.9.
With `CC(C)C[C@H](NC(=O)[C@](C)(Cc1ccccc1)NC(=O)[C@H](CCCCN)NC(=O)[C@H](CO)NC(=O)[C@@H](NC(=O)[C@H](CC(=O)O)NC(=O)[C@H](CO)NC(=O)[C@@H](NC(=O)[C@H](Cc1ccccc1)NC(=O)[C@@H](NC(=O)CNC(=O)[C@H](CCC(N)=O)NC(=O)C(C)(C)NC(=O)[C@@H](N)Cc1c[nH]cn1)[C@@H](C)O)[C@@H](C)O)C(C)C)C(=O)N[C@@H](CC(=O)O)C(=O)N[C@@H](CO)C(=O)N[C@@H](CCCCNC(=O)COCCOCCNC(=O)COCCOCCNC(=O)CC[C@H](NC(=O)CCCCCCCCCCCCCCCCC(=O)O)C(=O)O)C(=O)N[C@@H](CCCNC(=N)N)C(=O)N[C@@H](C)C(=O)N[C@@H](CCC(N)=O)C(=O)N[C@@H](CC(=O)O)C(=O)N[C@@H](Cc1ccccc1)C(=O)N[C@H](C(=O)N[C@@H](CCCNC(=N)N)C(=O)N[C@@H](Cc1c[nH]c2ccccc12)C(=O)N[C@H](C(=O)N[C@H](C(=O)N[C@@H](CCC(=O)O)C(=O)NC(C)(C)C(=O)NCC(=O)O)C(C)C)C(C)C)C(C)C` [Peptide 149] (H-H[Aib]QGTFTSDVSK[αMeF]LDSK([AEEA-AEEA-γGlu-C18 diacid])RAQDFVRWVVE[Aib]G-OH; N-terminus assumed), the concentration for a half-maximal effect (EC50) in assay [1] is 2.65 nM. In assay [2], the 50% effective concentration (EC50) was found to be 0.00871 nM and the “% Relative Potency Ratio” value is given as 602.8.
`CC(C)C[C@H](NC(=O)[C@H](Cc1c[nH]c2ccccc12)NC(=O)[C@H](CCC(N)=O)NC(=O)[C@@H](NC(=O)[C@H](Cc1ccccc1)NC(=O)[C@H](CC(=O)O)NC(=O)[C@H](CCC(N)=O)NC(=O)[C@H](C)NC(=O)[C@H](CCCNC(=N)N)NC(=O)[C@H](CCCCNC(=O)COCCOCCNC(=O)COCCOCCNC(=O)CC[C@H](NC(=O)CCCCCCCCCCCCCCCCC(=O)O)C(=O)O)NC(=O)[C@H](CO)NC(=O)[C@H](CC(=O)O)NC(=O)[C@H](CC(C)C)NC(=O)[C@](C)(Cc1ccccc1)NC(=O)[C@H](CCCCN)NC(=O)[C@H](CO)NC(=O)[C@@H](NC(=O)[C@H](CC(=O)O)NC(=O)[C@H](CO)NC(=O)[C@@H](NC(=O)[C@H](Cc1ccccc1)NC(=O)[C@@H](NC(=O)CNC(=O)[C@H](CCC(N)=O)NC(=O)C(C)(C)NC(=O)[C@@H](N)Cc1c[nH]cn1)[C@@H](C)O)[C@@H](C)O)C(C)C)C(C)C)C(=O)N[C@@H](CC(C)C)C(=O)NC(C)(C)C(=O)N[C@H](C(=O)N[C@@H](CCC(=O)O)C(=O)O)[C@@H](C)O` [Peptide 150] (H-H[Aib]QGTFTSDVSK[αMeF]LDSK([AEEA-AEEA-γGlu-C18 diacid])RAQDFVQWLL[Aib]TE-OH; N-terminus assumed): the EC50 in assay [1] was 0.355 nM. Besides, in assay [2], the EC50 turned out to be 0.166 nM and the “% Relative Potency Ratio” value is listed as 4.2.
The corresponding values for `CC(C)C[C@H](NC(=O)[C@H](Cc1c[nH]c2ccccc12)NC(=O)[C@H](CCCNC(=N)N)NC(=O)[C@@H](NC(=O)[C@H](Cc1ccccc1)NC(=O)[C@H](CC(=O)O)NC(=O)[C@H](CCC(N)=O)NC(=O)[C@H](C)NC(=O)[C@H](CCCNC(=N)N)NC(=O)[C@H](CCCCNC(=O)COCCOCCNC(=O)COCCOCCNC(=O)CC[C@H](NC(=O)CCCCCCCCCCCCCCCCCCC(=O)O)C(=O)O)NC(=O)[C@H](CO)NC(=O)[C@H](CC(=O)O)NC(=O)[C@H](CC(C)C)NC(=O)[C@](C)(Cc1ccccc1)NC(=O)[C@H](CCCCN)NC(=O)[C@H](CO)NC(=O)[C@@H](NC(=O)[C@H](CC(=O)O)NC(=O)[C@H](CO)NC(=O)[C@@H](NC(=O)[C@H](Cc1ccccc1)NC(=O)[C@@H](NC(=O)CNC(=O)[C@H](CCC(N)=O)NC(=O)C(C)(C)NC(=O)[C@@H](N)Cc1c[nH]cn1)[C@@H](C)O)[C@@H](C)O)C(C)C)C(C)C)C(=O)N[C@@H](CC(C)C)C(=O)NC(C)(C)C(=O)N[C@H](C(=O)N[C@@H](CCC(=O)O)C(=O)O)[C@@H](C)O` [Peptide 151] (H-H[Aib]QGTFTSDVSK[αMeF]LDSK([AEEA-AEEA-γGlu-C20 diacid])RAQDFVRWLL[Aib]TE-OH; N-terminus assumed) are 0.178 nM, 0.111 nM and 3.2.
The corresponding values for `CC(C)C[C@H](NC(=O)[C@H](Cc1c[nH]c2ccccc12)NC(=O)[C@H](CCCNC(=N)N)NC(=O)[C@@H](NC(=O)[C@H](Cc1ccccc1)NC(=O)[C@H](CC(=O)O)NC(=O)[C@H](CCC(N)=O)NC(=O)[C@H](C)NC(=O)[C@H](CCCNC(=N)N)NC(=O)[C@H](CCCCNC(=O)COCCOCCNC(=O)COCCOCCNC(=O)CC[C@H](NC(=O)CCCCCCCCCCCCCCCCC(=O)O)C(=O)O)NC(=O)[C@H](CO)NC(=O)[C@H](CC(=O)O)NC(=O)[C@H](CC(C)C)NC(=O)[C@](C)(Cc1ccccc1)NC(=O)[C@H](CCCCN)NC(=O)[C@H](CO)NC(=O)[C@@H](NC(=O)[C@H](CC(=O)O)NC(=O)[C@H](CO)NC(=O)[C@@H](NC(=O)[C@H](Cc1ccccc1)NC(=O)[C@@H](NC(=O)CNC(=O)[C@H](CCC(N)=O)NC(=O)C(C)(C)NC(=O)[C@@H](N)Cc1c[nH]cn1)[C@@H](C)O)[C@@H](C)O)C(C)C)C(C)C)C(=O)N[C@@H](CC(C)C)C(=O)NC(C)(C)C(=O)N[C@@H](CCC(=O)O)C(=O)O` [Peptide 152] (H-H[Aib]QGTFTSDVSK[αMeF]LDSK([AEEA-AEEA-γGlu-C18 diacid])RAQDFVRWLL[Aib]E-OH; N-terminus assumed) are 0.0204 nM, 0.0119 nM and 3.4.
On to `CC(C)C[C@H](NC(=O)[C@H](Cc1c[nH]c2ccccc12)NC(=O)[C@H](CCCNC(=N)N)NC(=O)[C@@H](NC(=O)[C@H](Cc1ccccc1)NC(=O)[C@H](CC(=O)O)NC(=O)[C@H](CCC(N)=O)NC(=O)[C@H](C)NC(=O)[C@H](CCCNC(=N)N)NC(=O)[C@H](CCCCNC(=O)COCCOCCNC(=O)COCCOCCNC(=O)CC[C@H](NC(=O)CCCCCCCCCCCCCCCCCCC(=O)O)C(=O)O)NC(=O)[C@H](CO)NC(=O)[C@H](CC(=O)O)NC(=O)[C@H](CC(C)C)NC(=O)[C@](C)(Cc1ccccc1)NC(=O)[C@H](CCCCN)NC(=O)[C@H](CO)NC(=O)[C@@H](NC(=O)[C@H](CC(=O)O)NC(=O)[C@H](CO)NC(=O)[C@@H](NC(=O)[C@H](Cc1ccccc1)NC(=O)[C@@H](NC(=O)CNC(=O)[C@H](CCC(N)=O)NC(=O)C(C)(C)NC(=O)[C@@H](N)Cc1c[nH]cn1)[C@@H](C)O)[C@@H](C)O)C(C)C)C(C)C)C(=O)N[C@@H](CC(C)C)C(=O)NC(C)(C)C(=O)N[C@@H](CCC(=O)O)C(=O)O` [Peptide 153] (H-H[Aib]QGTFTSDVSK[αMeF]LDSK([AEEA-AEEA-γGlu-C20 diacid])RAQDFVRWLL[Aib]E-OH; N-terminus assumed), for which the EC50 in assay [1] was found to be 0.099 nM. Also, in assay [2], the 50% effective concentration (EC50) was found to be 0.0412 nM and the “% Relative Potency Ratio” value worked out at 4.8.
